In experiment [1] the target is human HSP90 alpha protein (N-terminal, amino acids 2 to 236) (Homo sapiens (Human), UniProt P07900). The experiment is described as follows: Determination of HSP90-binding activity (AlphaScreen competitive assay with biotinylated geldanamycin). The settings on record: inhibition of binding of biotinylated geldanamycin to purified HSP90 N-terminal protein, read-out: HSP-binding activity IC50. Put shortly:
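His-tagged N-terminal construct (aa 2–236) expressed in E. coli and purified was preincubated with compound 2 h at room temperature, then biotinylated geldanamycin (40 nM/well) added for 1 h. AlphaScreen nickel-chelate acceptor/streptavidin donor beads, 1 h dark; percent inhibition calculated against no-compound signal.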
On the technique in general: Alpha assays give light when donor and acceptor beads are brought close together.

Experiment [2] has as its system SK-BR-3 cells. The experiment is described as follows: Determination of cell growth inhibition (crystal violet staining method). The format is cell-based. The settings on record: Homo sapiens; breast cancer cells SK-BR-3, 72 hours culture with test substance. Put shortly:
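SK-BR-3 cells seeded 5,000/well, cultured 24 h at 37 °C, then exposed to compound for 72 h. Cells fixed with glutaraldehyde, stained with 0.05% crystal violet, eluted and read at 540 nm; percent growth inhibition calculated versus untreated wells.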

Structures are written as SMILES.

Turning to `Cc1cc2c(-c3cnc4ccccc4c3)cccc2c(-c2ccc(C(N)=O)c(NC3CCC(O)CC3)c2)[n+]1[O-]` (stereo not shown) [Example 8, 1-(4-Carbamoyl-3-(4-hydroxycyclohexylamino)phenyl)-3-methyl-5-(quinolin-3-yl)isoquinoline-2-oxide], the half-maximal inhibitory concentration (IC50) stood at 100 nM in experiment [1] and 20 nM in experiment [2].
Regarding `CC(C)c1cc(-c2ccc(C(N)=O)c(N)c2)c2cccc(-n3cnc(-c4cnn(C)c4)c3)c2n1` [Example 113, 2-Amino-4-(2-isopropyl-8-(4-(1-methyl-1H-pyrazol-4-yl)-1H-imidazol-1-yl)quinolin-4-yl)benzamide], the IC50 in experiment [1] is 80 nM; in experiment [2] it was 10 nM.
`CC(C)Nc1cc(-c2cc(C(F)(F)F)nc3c(-n4cnc(-c5cnn(C)c5)c4)cccc23)ccc1C(N)=O` [Example 64]: the IC50 was 170 nM in experiment [1] and 10 nM in experiment [2].
For the molecule `NC(=O)c1ccc(-c2cc(C(F)(F)F)nc3c(-n4cnc(-c5ccccc5)c4)cccc23)cc1N` [Example 108, 2-Amino-4-(8-(4-phenyl-1H-imidazol-1-yl)-2-(trifluoromethyl)quinolin-4-yl)benzamide], the figures for the half-inhibitory concentration (IC50) in experiment [1] and in experiment [2] were 3750 nM and 340 nM, respectively.
Consider `CCCNc1cncc(-c2cccc3c(-c4ccc(C(N)=O)c(NC5CCC(O)CC5)c4)nccc23)c1` (stereo not shown) [Example 35, 2-(4-Hydroxycyclohexylamino)-4-(5-(5-(propylamino)pyridin-3-yl)isoquinolin-1-yl)benzamide], for which the IC50 in experiment [1] was determined as 1490 nM; in experiment [2], 460 nM.
`CC(C)(C)Nc1cc(-c2nccc3c(-n4cnc(-c5cccnc5)c4)cccc23)ccc1C(N)=O` [Example 127]: the IC50 in experiment [1] worked out at 210 nM; in experiment [2] it was 50 nM.
In the same order, the values of `NC(=O)c1ccc(-c2cc(C(F)(F)F)nc3c(-c4cnc5ccccc5c4)cccc23)cc1N` [Example 110, 2-Amino-4-(2′-(trifluoromethyl)-3,8′-biquinolin-4′-yl)benzamide] are 380 nM and 100 nM.
For `Cc1cc2c(-n3cnc(-c4cnn(C)c4)c3)cccc2c(-c2ccc(C(N)=O)c(NC(C)(C)C)c2)n1` [Example 93, 2-(Tert-butylamino)-4-(3-methyl-5-(4-(1-methyl-1H-pyrazol-4-yl)-1H-imidazol-1-yl)isoquinolin-1-yl)benzamide], the concentration for half-maximal inhibition (IC50) in experiment [1] amounted to 100 nM; in experiment [2] it was 20 nM.
As for `NC(=O)c1ccc(-c2nccc3c(-c4cnc5cc[nH]c5c4)cccc23)cc1NC1CCC(O)CC1` (stereo not shown) [Example 39, 4-(5-(1H-Pyrrolo[3,2-b]pyridin-6-yl)isoquinolin-1-yl)-2-(4-hydroxycyclohexylamino)benzamide], the concentration for half-maximal inhibition (IC50) in experiment [1] turned out to be 130 nM; in experiment [2], 10 nM.
On to `CC(C)c1cc(-c2ccc(C(N)=O)c(N)c2)c2cccc(-n3cnc(-c4cccnc4)c3)c2n1` [Example 123, 2-Amino-4-(2-isopropyl-8-(4-(pyridin-3-yl)-1H-imidazol-1-yl)quinolin-4-yl)benzamide], for which the IC50 in experiment [1] came out at 160 nM; in experiment [2] it was 10 nM.
For the molecule `Cn1cc(-c2cn(-c3cccc4c(-c5ccc(C(N)=O)c(NCCc6ccccn6)c5)nccc34)cn2)cn1` [Example 60, 4-(5-(4-(1-Methyl-1H-pyrazol-4-yl)-1H-imidazol-1-yl)isoquinolin-1-yl)-2-(2-(pyridin-2-yl)ethylamino)benzamide], the IC50 in experiment [1] worked out at 170 nM; in experiment [2] it was 150 nM.
In the same order, the values of `NC(=O)c1ccc(-c2nccc3c(-c4cncc(NC(=O)CO)c4)cccc23)cc1NC1CCC(O)CC1` (stereo not shown) [Example 28, 4-(5-(5-(2-Hydroxyacetamide)pyridin-3-yl)isoquinolin-1-yl)-2-(4-hydroxycyclohexylamino)benzamide] are 230 nM and 500 nM.
Take `CCc1cc(-c2ccc(C(N)=O)c(N)c2)c2cccc(-n3cnc(-c4cccnc4)c3)c2n1` [Example 122, 2-Amino-4-(2-ethyl-8-(4-(pyridin-3-yl)-1H-imidazol-1-yl)quinolin-4-yl)benzamide]: the IC50 in experiment [1] was determined as 90 nM; in experiment [2], 10 nM.
For the molecule `Cn1cc(-c2cn(-c3cccc4c(-c5ccc(C(N)=O)c(F)c5)cc(C(F)(F)F)nc34)cn2)cn1` [Example 70, 2-Fluoro-4-(8-(4-(1-methyl-1H-pyrazol-4-yl)-1H-imidazol-1-yl)-2-(trifluoromethyl)quinolin-4-yl)benzamide], the IC50 was determined as 210 nM in experiment [1] and 60 nM in experiment [2].
Take `NC(=O)c1ccc(-c2nccc3c(-n4cnc(-c5ccncc5)c4)cccc23)cc1NC1CCC(O)CC1` (stereo not shown) [Example 25, 2-(4-Hydroxycyclohexylamino)-4-(5-(4-(pyridin-4-yl)-1H-imidazol-1-yl)isoquinolin-1-yl)benzamide]: the results for the IC50 in experiment [1] and in experiment [2] were 130 nM and 110 nM, respectively.
For `Cc1cc(-c2ccc(C(N)=O)cc2C)c2cccc(-n3cnc(-c4cnn(C)c4)c3)c2n1` [Example 102, 3-Methyl-4-(2-methyl-8-(4-(1-methyl-1H-pyrazol-4-yl)-1H-imidazol-1-yl)quinolin-4-yl)benzamide], the IC50 was found to be 250 nM in experiment [1] and 630 nM in experiment [2].
As for `CC(C)(C)OC(=O)NCCc1cncc(-c2cccc3c(-c4ccc(C(N)=O)c(NC5CCC(O)CC5)c4)nccc23)c1` (stereo not shown) [Example 19, Tert-butyl 2-(5-(1-(4-carbamoyl-3-(4-hydroxycyclohexylamino)phenyl)isoquinolin-5-yl)pyridin-3-yl)ethylcarbamate], the values for the IC50 in experiment [1] and in experiment [2] were 2690 nM and 880 nM, respectively.
Regarding `CNC(=O)c1ccc(-c2cccc3c(-c4ccc(C(N)=O)c(NC5CCC(O)CC5)c4)nccc23)cn1` (stereo not shown) [Example 56, 5-(1-(4-Carbamoyl-3-(4-hydroxycyclohexylamino)phenyl)isoquinolin-5-yl)-N-methylpicolinamide], the values for the IC50 in experiment [1] and in experiment [2] were 370 nM and 470 nM, respectively.
The like results for `Cc1cc2c(-n3cnc(-c4cnn(C)c4)c3)cccc2c(-c2ccc(C(N)=O)cc2N)n1` [Example 74, 3-Amino-4-(3-methyl-5-(4-(1-methyl-1H-pyrazol-4-yl)-1H-imidazol-1-yl)isoquinolin-1-yl)benzamide] were, in that order, 440 nM and 1120 nM.
For the molecule `NC(=O)c1ccc(-c2nc(C3CC3)nc3c(-c4cnc5ccccc5c4)cccc23)cc1NC1CCC(O)CC1` (stereo not shown) [Example 115, 4-(2-Cyclopropyl-8-(quinolin-3-yl)quinazolin-4-yl)-2-(4-hydroxycyclohexylamino)benzamide], the IC50 in experiment [1] stood at 140 nM; in experiment [2], 10 nM.
With `CCNc1cc(-c2cccc3c(-n4cnc(-c5cnn(C)c5)c4)nccc23)ccc1C(N)=O` [Comp. Ex. 3, 2-(Ethylamino)-4-(1-(4-(1-methyl-1H-pyrazol-4-yl)-1H-imidazol-1-yl)isoquinolin-5-yl)benzamide, reference compound], the IC50 in experiment [1] was over 100000 nM; in experiment [2] it was 7630 nM.
The like results for `NC(=O)c1ccc(-c2nc(CN3CCOCC3)cc3c(-c4cnc5ccccc5c4)cccc23)cc1NC1CCC(O)CC1` (stereo not shown) [Example 31, 2-(4-Hydroxycyclohexylamino)-4-(3-(morpholinomethyl)-5-(quinolin-3-yl)isoquinolin-1-yl)benzamide] were, in that order, 800 nM and 580 nM.
With `NC(=O)c1ccc(-c2nc(C(F)(F)F)nc3c(-c4cnc5ccccc5c4)cccc23)cc1NC1CCC(O)CC1` (stereo not shown) [Example 114, 2-(4-Hydroxycyclohexylamino)-4-(8-(quinolin-3-yl)-2-(trifluoromethyl)quinazolin-4-yl)benzamide], the values for the IC50 in experiment [1] and in experiment [2] were 70 nM and 10 nM, respectively.
In the case of `NC(=O)c1ccc(-c2nccc3c(-n4cnc(-c5cccnc5)c4)cccc23)cc1NC1CCC(O)CC1` (stereo not shown) [Example 32, 2-(4-Hydroxycyclohexylamino)-4-(5-(4-(pyridin-3-yl)-1H-imidazol-1-yl)isoquinolin-1-yl)benzamide], the IC50 came out at 80 nM in experiment [1] and 20 nM in experiment [2].
As to `CN(C)CNC(=O)c1ccc(-c2nccc3c(-c4cnc5ccccc5c4)cccc23)cc1NC1CCC(O)CC1` (stereo not shown) [Example 38, N-((dimethylamino)methyl)-2-(4-hydroxycyclohexylamino)-4-(5-(quinolin-3-yl)isoquinolin-1-yl)benzamide], the IC50 was found to be 980 nM in experiment [1] and 40 nM in experiment [2].
As to `Cn1cc(-c2cn(-c3cccc4c(-c5ccc(C(N)=O)c(NC6CCC(O)CC6)c5)nccc34)cn2)cn1` (stereo not shown) [Example 48, 2-(4-Hydroxycyclohexylamino)-4-(5-(4-(1-methyl-1H-pyrazol-4-yl)-1H-imidazol-1-yl)isoquinolin-1-yl)benzamide], the figures for the IC50 in experiment [1] and in experiment [2] were 70 nM and 20 nM, respectively.
As to `CCNc1cc(-c2nc(C(F)(F)F)nc3c(-n4cnc(-c5cnn(C)c5)c4)cccc23)ccc1C(N)=O` [Example 80, 2-(Ethylamino)-4-(8-(4-(1-methyl-1H-pyrazol-4-yl)-1H-imidazol-1-yl)-2-(trifluoromethyl)quinazolin-4-yl)benzamide], the IC50 is 140 nM in experiment [1] and 20 nM in experiment [2].
As to `Cn1cc(-c2cn(-c3cccc4c(-c5ccc(C(N)=O)cc5N)nc(C(F)(F)F)nc34)cn2)cn1` [Example 75, 3-Amino-4-(8-(4-(1-methyl-1H-pyrazol-4-yl)-1H-imidazol-1-yl)-2-(trifluoromethyl)quinazolin-4-yl)benzamide], the values for the concentration for half-maximal inhibition (IC50) in experiment [1] and in experiment [2] were 210 nM and 330 nM, respectively.
The like results for `Cc1cc(C(N)=O)ccc1-c1cc(C(F)(F)F)nc2c(-n3cnc(-c4cnn(C)c4)c3)cccc12` [Example 84, 3-Methyl-4-(8-(4-(1-methyl-1H-pyrazol-4-yl)-1H-imidazol-1-yl)-2-(trifluoromethyl)quinolin-4-yl)benzamide] were, in that order, 220 nM and 110 nM.

As a reminder, the IC50 is the point on the concentration scale where inhibition reaches its midpoint.

For the origin of these results see US8912181B2 (Taiho Pharmaceutical Co., Ltd., priority 2011, dated 2014).
